From US20080039482A1, “SULFONAMIDO-MACROCYCLES AS TIE2 INHIBITORS AND SALTS THEREOF, PHARMACEUTICAL COMPOSITIONS COMPRISING SAME, METHODS OF PREPARING SAME AND USES OF SAME” (priority 2006, published 2008) come the findings set out here.

The target in assay [1] is T1, Tie2 (Homo sapiens, UniProt Q02763). As to the kind of experiment: Tie2 ELISA assay (assay 1): Ang2-stimulated Tie2 autophosphorylation in transfected CHO cells. It is filed as cell-based. Also noted: expressed in transfected cells; host or cells: CHO (DHFR selection). Particulars: CHO Tie2/DHFR cells stimulated by angiopoietin-2, pIC50 = -log IC50 in molar concentration, read-out: Tie 2 activity (assay 1). The procedure: Cellular activity of compounds of the present invention as inhibitors of Tie2 kinase activity was measured employing a Tie2 ELISA assay as described in the following paragraphs. Herein CHO cell-cultures, which are stably transfected by known techniques with Tie2 using DHFR deficiency as selection marker, are stimulated by angiopoietin-2. The specific autophosphorylation of Tie2 receptors is quantified with a sandwich-ELISA using anti-Tie2 antibodies for catch and anti-phosphotyrosine antibodies coupled to HRP for detection.
• 96 well tissue culture plate, sterile, Greiner • 96 well FluoroNunc plate MaxiSorp Surface C, Nunc • 96 well plate polypropylene for compound dilution in DMSO • CHO Tie2/DHFR (transfected cells) • PBS−; PBS++, DMSO • MEM alpha Medium with Glutamax-I without Ribonucleosides and Deoxyribonucleosides (Gibco #32561-029) with 10% FCS after dialysis! and 1% PenStrep • Lysis buffer: 1 Tablet “Complete” protease inhibitor • 1 cap Vanadate (1 mL>40 mg/mL; working solution 2 mM) • ad 50 mL with Duschl-Puffer • pH 7.6 • Anti-Tie2-antibody 1:425 in Coating Buffer pH 9.6 • Stock solution: 1.275 mg/mL>working: 3 μg/mL • PBST: 2 bottles PBS (10×)+10 ml Tween, fill up with VE-water • RotiBlock 1:10 in VE-water • Anti-Phosphotyrosine HRP-Conjugated 1:10000 in 3% TopBlock • 3% TopBlock in PBST • BM Chemiluminescence ELISA Substrate (POD) • solution B 1:100 solution A • SF9 cell culture medium • Ang2-Fc in SF9 cell culture medium Cell Experiment: • Dispense 5×10^4 cells/well/98 μL in 96 well tissue culture plate • Incubate at 37° C./5% CO2 • After 24 h add compounds according to desired concentrations • Add also to control and stimulated values without compounds 2 μL DMSO • And mix for a few min at room temperature • Add 100 μL Ang2-Fc to all wells except control, which receives insect medium • Incubate 20 min at 37° C. • Wash 3× with PBS++ • Add 100 μl Lysis buffer/well and shake a couple of min at room temperature • Store lysates at […] before utilizing for the ELISA Performance of Sandwich-ELISA • Coat 96 well FluoroNunc Plate MaxiSorp Surface C with anti-Tie2 mAb • 1:425 in Coating buffer pH 9.6; 100 μL/well overnight at 4° C. • Wash 2× with PBST • Block plates with 250 μL/well RotiBlock 1:10 in VE-water • Incubate for 2 h at room temperature or overnight at 4° C. shaking • Wash 2× in PBST • Add thawed lysates to wells and incubate overnight shaking at 4° C. • Wash 2× with PBST • Add 100 μL/well anti-Phosphotyrosine HRP-Conjugated 1:10000 in 3% • TopBlock (3% TopBlock in PBST) and incubate overnight under shaking • Wash 6× with PBST • Add 100 μL/well BM Chemiluminescence ELISA Substrate (POD) • solutions 1 und 2 (1:100) • Determine luminescence with the LumiCount. Assay 2: Tie-2-Kinase HTRF-Assay Without Kinase Preactivation
Target sequence in this assay (Q02763 23-1124, species assumed): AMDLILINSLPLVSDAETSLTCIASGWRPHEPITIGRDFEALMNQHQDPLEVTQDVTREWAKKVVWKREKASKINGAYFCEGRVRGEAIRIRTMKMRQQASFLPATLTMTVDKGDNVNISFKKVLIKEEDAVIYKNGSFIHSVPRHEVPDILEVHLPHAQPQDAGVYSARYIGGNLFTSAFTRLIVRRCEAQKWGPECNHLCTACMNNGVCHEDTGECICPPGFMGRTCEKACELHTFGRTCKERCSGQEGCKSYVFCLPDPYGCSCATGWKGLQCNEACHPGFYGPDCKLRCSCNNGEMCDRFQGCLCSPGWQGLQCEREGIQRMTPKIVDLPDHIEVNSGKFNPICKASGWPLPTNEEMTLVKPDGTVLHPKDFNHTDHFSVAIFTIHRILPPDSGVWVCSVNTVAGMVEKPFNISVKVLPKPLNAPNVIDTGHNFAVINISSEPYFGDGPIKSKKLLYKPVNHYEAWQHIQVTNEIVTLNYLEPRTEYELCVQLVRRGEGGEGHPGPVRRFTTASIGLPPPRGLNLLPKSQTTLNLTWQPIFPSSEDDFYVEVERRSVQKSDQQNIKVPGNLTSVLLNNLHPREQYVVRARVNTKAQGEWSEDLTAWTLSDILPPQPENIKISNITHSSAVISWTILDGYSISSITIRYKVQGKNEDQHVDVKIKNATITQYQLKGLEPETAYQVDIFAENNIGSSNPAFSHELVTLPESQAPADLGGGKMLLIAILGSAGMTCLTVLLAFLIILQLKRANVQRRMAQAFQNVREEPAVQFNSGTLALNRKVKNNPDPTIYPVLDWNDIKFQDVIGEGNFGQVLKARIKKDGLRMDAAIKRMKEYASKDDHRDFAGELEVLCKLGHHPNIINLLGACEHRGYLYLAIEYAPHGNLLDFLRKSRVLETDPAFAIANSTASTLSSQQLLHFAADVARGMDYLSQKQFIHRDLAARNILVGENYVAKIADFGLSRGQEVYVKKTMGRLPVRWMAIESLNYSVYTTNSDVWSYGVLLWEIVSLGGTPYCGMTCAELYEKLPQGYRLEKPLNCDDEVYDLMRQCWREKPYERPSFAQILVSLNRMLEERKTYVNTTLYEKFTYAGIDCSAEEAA

For assay [2], the target named is T1, Tie2. As to the kind of experiment: Tie-2-Kinase HTRF-Assay without kinase preactivation (assay 2). It is filed as biochemical. Also noted: fusion protein of GST and the intracellular domains of Tie-2; GST; made in house; host or cells: insect cells (Hi-5). Particulars: 10 μM ATP, pIC50 = -log IC50 in molar concentration. An excerpt:
Tie2-inhibitory activity of compounds of the present invention was quantified employing two Tie2 HTRF assay as described in the following paragraphs.
A recombinant fusion protein of GST and the intracellular domains of Tie-2, expressed in insect cells (Hi-5) and purified by Glutathion-Sepharose affinity chromatography was used as kinase. Alternatively, commercially available GST-Tie2-fusion protein (Upstate Biotechnology, Dundee, Scotland) can be used As substrate for the kinase reaction the biotinylated peptide biotin-Ahx-EPKDDAYPLYSDFG (C-terminus in amid form) was used which can be purchased e.g. from the company Biosynthan GmbH (Berlin-Buch, Germany). Detection of phosphorylated product is achieved specifically by a trimeric detection complex consisting of the phosphorylated substrate, streptavidin-XLent (SA-XLent) which binds to biotin, and Europium Cryptate-labeled anti-phosphotyrosine antibody PT66 which binds to phosphorylated tyrosine.
Tie-2 (3.5 ng/measurement point) was incubated for 60 min at 22° C. in the presence of 10 μM adenosine-tri-phosphate (ATP) and 1 μM substrate peptide (biotin-Ahx-EPKDDAYPLYSDFG-NH2) with different concentrations of test compounds (0 μM and concentrations in the range 0.001-20 μM) in 5 μl assay buffer [50 mM Hepes/NaOH pH 7, 10 mM MgCl2, 0.5 mM MnCl2, 1.0 mM dithiothreitol, 0.01% NP40, protease inhibitor mixture (“Complete w/o EDTA” from Roche, 1 tablet per 2.5 ml), 1% (v/v) dimethylsulfoxide]. The reaction was stopped by the addition of 5 μl of an aqueous buffer (25 mM Hepes/NaOH pH 7.5, 0.28% (w/v) bovine serum albumin) containing EDTA (90 mM) and the HTRF (Homogeneous Time Resolved Fluorescence) detection reagents streptavidine-XLent (0.2 μM, from Cis Biointernational, Marcoule, France) and PT66-Eu-Chelate (0.3 ng/μl; a europium-chelate labelled anti-phospho-tyrosine antibody from Perkin Elmer).
The resulting mixture was incubated 1 h at 22° C. to allow the binding of the biotinylated phosphorylated peptide to the streptavidine-XLent and the PT66-Eu-Chelate. Subsequently the amount of phosphorylated substrate peptide was evaluated by measurement of the resonance energy transfer from the PT66-Eu-Chelate to the streptavidine-XLent. Therefore, the fluorescence emissions at 620 nm and 665 nm after excitation at 350 nm was measured in a HTRF reader, e.g. a Rubystar (BMG Labtechnologies, Offenburg, Germany) or a Viewlux (Perkin-Elmer). The ratio of the emissions at 665 nm and at […] was taken as the measure for the amount of phosphorylated substrate peptide. The data were normalised (enzyme reaction without inhibitor=0% inhibition, all other assay components but no enzyme=100% inhibition) and IC50 values were calculated by a 4 parameter fit using an inhouse software.
Target sequence in this assay (Q02763 770-1124 limits assumed, species assumed): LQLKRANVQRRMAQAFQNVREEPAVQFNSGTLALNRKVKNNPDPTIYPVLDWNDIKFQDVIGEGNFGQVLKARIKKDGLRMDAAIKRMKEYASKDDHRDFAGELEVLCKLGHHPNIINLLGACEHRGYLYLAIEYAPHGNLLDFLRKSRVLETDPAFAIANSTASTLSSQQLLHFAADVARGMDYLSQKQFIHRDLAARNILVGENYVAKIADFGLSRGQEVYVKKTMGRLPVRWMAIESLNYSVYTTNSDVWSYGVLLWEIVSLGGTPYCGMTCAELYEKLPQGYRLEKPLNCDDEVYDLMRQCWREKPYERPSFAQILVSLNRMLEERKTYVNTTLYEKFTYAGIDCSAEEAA

With `O=C(Nc1ccc(-c2cnc3nc2NCCCNS(=O)(=O)c2cccc(c2)N3)cc1)C1(c2cccc(Cl)c2)CC1` [Example 5, 1-(3-Chloro-phenyl)-cyclopropane-arboxylic acid [4-(13,13-dioxo-13λ^6-thia-2,4,8,12,19-pentaaza-tricyclo[12.3.1.1^3,7]-nadeca-1(18),3(19),4,6,14,16-hexaen-6-yl)-phenyl]-amide], the IC50 at Tie2 [1] and against Tie2 [2] was less than 100 nM throughout.

For the compound `O=C(Nc1ccc(-c2cnc3nc2NCCCNS(=O)(=O)c2cccc(c2)N3)cc1)C1(c2cc(C(F)(F)F)ccc2F)CC1` [Example 12, 1-(2-Fluoro-5-trifluoromethyl-phenyl)-cyclopropane-carboxylic acid [4-(13,13-dioxo-13λ^6-thia-2,4,8,12,19-pentaaza-tricyclo[12.3.1.1^3,7]-nonadeca-1(18),3(19),4,6,14,16-hexaen-6-yl)-phenyl]-amide], the IC50 on Tie2 [1] and against Tie2 [2] was less than 100 nM each time.

For the compound `O=C(Nc1ccc(-c2cnc3nc2NCCCNS(=O)(=O)c2cccc(c2)N3)cc1)C1(c2cccc(F)c2)CC1` [Example 8, 1-(3-Fluoro-phenyl)-cyclopropane-carboxylic acid [4-(13,13-dioxo-13λ^6-thia-2,4,8,12,19-pentaaza-tricyclo[12.3.1.1^3,7]nonadeca-1(18),3(19),4,6,14,16-hexaen-6-yl)-phenyl]-amide], the IC50 on Tie2 [1] and on Tie2 [2] was less than 100 nM throughout.

`CC(C)(C(=O)Nc1ccc(-c2cnc3nc2NCCCNS(=O)(=O)c2cccc(c2)N3)cc1)c1ccc(Cl)cc1` [Example 13, 2-(4-Chloro-phenyl)-N-[4-(13,13-dioxo-13λ^6-thia-2,4,8,12,19-pentaaza-tricyclo[12.3.1.1^3,7]-nonadeca-1(18),3(19),4,6,14,16-hexaen-6-yl)-phenyl]-isobutyramide]: the IC50 on Tie2 [1] was 100 to 1000 nM; on Tie2 [2], less than 100 nM.

For `Cc1ccc(C2(C(=O)Nc3ccc(-c4cnc5nc4NCCCNS(=O)(=O)c4cccc(c4)N5)cc3)CC2)cc1` [Example 1, 1-p-Tolyl-cyclopropane-carboxylic acid [4-(13,13-dioxo-13λ^6-thia-2,4,8,12,19-pentaaza-tricyclo[12.3.1.1^3,7]nonadeca-1(18),3(19),4,6, 14,16-hexaen-6-yl)-phenyl]-amide], the IC50 on Tie2 [1] and at Tie2 [2] was less than 100 nM in each case.

In the case of `COc1cccc(C2(C(=O)Nc3ccc(-c4cnc5nc4NCCCNS(=O)(=O)c4cccc(c4)N5)cc3)CC2)c1` [Example 3, 1-(3-Methoxy-phenyl)-cyclopropane-carboxylic acid [4-(13,13-dioxo-13λ^6-thia-2,4,8,12,19-pentaaza-tricyclo[12.3.1.1^3,7]nonadeca-1(18),3(19),4,6,14,16-hexaen-6-yl)-phenyl]-amide], the IC50 at Tie2 [1] and on Tie2 [2] was less than 100 nM each time.

As to `O=C(Nc1ccc(-c2cnc3nc2NCCCNS(=O)(=O)c2cccc(c2)N3)cc1)C1(c2ccc(Cl)cc2)CC1` [Example 6, 1-(4-Chloro-phenyl)-cyclopropane-carboxylic acid [4-(13,13-dioxo-13λ^6-thia-2,4,8,12,19-pentaaza-tricyclo[12.3.1.1^3,7]-nonadeca-1(18),3(19),4,6,14,16-hexaen-6-yl)-phenyl]-amide], the IC50 at Tie2 [1] and on Tie2 [2] was less than 100 nM in each case.

For `O=C(Nc1ccc(-c2cnc3nc2NCCCNS(=O)(=O)c2cccc(c2)N3)cc1)C1(c2ccc(F)cc2)CC1` [Example 9, 1-(4-Fluoro-phenyl)-cyclopropane-carboxylic acid [4-(13,13-dioxo-13λ^6-thia-2,4,8,12,19-pentaaza-tricyclo[12.3.1.1^3.7]nonadeca-1(18),3(19),4,6,14,16-hexaen-6-yl)-phenyl]-amide], the IC50 on Tie2 [1] and at Tie2 [2] was less than 100 nM throughout.

As for `Cc1ccccc1C1(C(=O)Nc2ccc(-c3cnc4nc3NCCCNS(=O)(=O)c3cccc(c3)N4)cc2)CC1` [Example 2, 1-o-Tolyl-cyclopropane-arboxylic acid [4-(13,13-dioxo-13λ^6-thia-2,4,8,12,19-pentaaza-tricyclo[12.3.1.1^3,7]nonadeca-1(18),3(19),4,6,14,16-hexaen-6-yl)-phenyl]-amide], the IC50 on Tie2 [1] and at Tie2 [2] was less than 100 nM in each case.

Take `COc1ccc(C2(C(=O)Nc3ccc(-c4cnc5nc4NCCCNS(=O)(=O)c4cccc(c4)N5)cc3)CC2)cc1` [Example 4, 1-(4-Methoxy-phenyl)-cyclopropane-carboxylic acid [4-(13,13-dioxo-13λ^6-thia-2,4,8,12,19-pentaaza-tricyclo[12.3.1.1^3,7]-nonadeca-1(18),3(19),4,6,14,16-hexaen-6-yl)-phenyl]-amide]: the IC50 at Tie2 [1] and on Tie2 [2] was less than 100 nM throughout.

In the case of `O=C(Nc1ccc(-c2cnc3nc2NCCCNS(=O)(=O)c2cccc(c2)N3)cc1)C1(c2ccccc2F)CC1` [Example 7, 1-(2-Fluoro-phenyl)-cyclopropane-carboxylic acid [4-(13,13-dioxo-13λ^6-thia-2,4,8,12,19-pentaaza-tricyclo[12.3.1.1^3,7]nonadeca-1(18),3(19),4,6,14,16-hexaen-6-yl)-phenyl]-amide], the IC50 at Tie2 [1] and against Tie2 [2] was less than 100 nM throughout.

Turning to `O=C(Nc1ccc(-c2cnc3nc2NCCCNS(=O)(=O)c2cccc(c2)N3)cc1)C1(c2cccc(C(F)(F)F)c2)CC1` [Example 10, 1-(3-Trifluoromethyl-phenyl)-cyclopropane-carboxylic acid [4-(13,13-dioxo-13λ^6-thia-2,4,8,12,19-pentaaza-tricyclo[12.3.1.1^3,7]nonadeca-1(18),3(19),4,6,14,16-hexaen-6-yl)-phenyl]-amide], the IC50 at Tie2 [1] is less than 100 nM; against Tie2 [2] it was 100 to 1000 nM.
